# Measured values as given in patent US20240336593A1, “Compound Having Antitumor Activity And Use Thereof” (lnnovStoneTherapeutics Limited, priority 2020, published 2024).
# Structures can show the parent of a compound that is named as a salt.
# Target: PRMT5 (Homo sapiens (Human), UniProt O14744)
# Test: Inhibitory activity against PRMT5 enzyme by radioisotopic method
# Type: biochemical
# Conditions: PRMT5 5 nM, [3H]-SAM 0.3 μM, polypeptide substrate GL-27 100 nM, room temperature
# Description: Test Example 1. Test on the inhibitory activity of the compounds of the invention against PRMT5 enzyme by radioisotopic method
# Test method: A 1× enzyme reaction buffer (10 mM Tris 8.0 (Sigma, Cat. No. T2694-1L), 0.01% Tween-20 (Sigma, Cat. No. P2287-100 ML), 1 mM DTT (Sigma, Cat. No. D0632-10G)) was prepared. PRMT5 (Active Motif, Cat. No. 31921) and [3H]—SAM (PerkinElmer, Cat. No. NET155V001MC) were added to the 1×enzyme reaction buffer, to prepare a 25/15× mixed solution (PRMT5 final concentration: 5 nM, [3H]—SAM final concentration: 0.3 μM). 15 μL of this solution was transferred into a 384-well microplate (Corning 384-well Polypropylene Storage Microplates, Cat. No. 3657) with various concentrations of the compounds (DMSO final concentration 1%), and incubated at room temperature for 60 minutes. A polypeptide substrate, GL-27 (Ac-[…]-K (Biotin) (GL Biochem, Cat. No. 342095)), was added into the 1×enzyme reaction buffer to prepare a 25/10× substrate solution. Then 10 μL of the polypeptide substrate solution (final concentration of the polypeptide substrate: 100 nM) was added, a reaction was stirred at room temperature for 120 minutes, and then 5 μL 6× ice cold SAM (Sigma, Cat. No. A7007-100 MG) solution was added to stop the reaction (SAM final concentration: 0.125 mM). 25 µL of the reaction mixture was transferred into a FlashPlate (Streptavidin FlashPlate HTS PLUS, High Capacity, 384-well, Perkin Elmer, Cat. No. SMP410A001PK), and incubated at room temperature for 1 h. After washed three times with distilled water containing 0.1% Tween-20, the microplate was read on a MicroBeta reader for CPM data (Counts Per Minute). […] Then the inhibition rate Inh % (Y) corresponding to each concentration (X) was input in EXCEL, and the IC50 value (the half maximal inhibitory concentration) of each compound was calculated with the XLfit plug-in according to the built-in four-parameter fitting equation Y=Bottom+(Top-Bottom)/(1+(IC50/X)[…]).
# Chain of PRMT5 (O14744 whole entry): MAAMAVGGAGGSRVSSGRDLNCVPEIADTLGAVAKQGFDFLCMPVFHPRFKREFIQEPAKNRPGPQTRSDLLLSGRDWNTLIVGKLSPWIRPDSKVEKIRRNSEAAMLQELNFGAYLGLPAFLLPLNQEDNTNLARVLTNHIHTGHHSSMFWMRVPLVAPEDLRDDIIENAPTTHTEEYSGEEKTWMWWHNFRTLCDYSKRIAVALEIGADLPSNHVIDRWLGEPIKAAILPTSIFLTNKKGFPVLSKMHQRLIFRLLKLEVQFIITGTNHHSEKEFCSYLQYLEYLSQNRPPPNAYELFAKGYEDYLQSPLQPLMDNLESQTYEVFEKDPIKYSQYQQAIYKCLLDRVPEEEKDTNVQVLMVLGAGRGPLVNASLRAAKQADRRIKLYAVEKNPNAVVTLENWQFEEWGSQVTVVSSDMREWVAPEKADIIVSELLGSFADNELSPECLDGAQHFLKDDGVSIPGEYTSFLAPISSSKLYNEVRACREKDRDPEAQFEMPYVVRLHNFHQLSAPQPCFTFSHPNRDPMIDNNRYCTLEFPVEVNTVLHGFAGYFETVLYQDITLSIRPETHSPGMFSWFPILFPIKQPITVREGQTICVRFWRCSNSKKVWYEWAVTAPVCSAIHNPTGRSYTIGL
# Chain of PRMT5 (Q9BQA1 whole entry partner): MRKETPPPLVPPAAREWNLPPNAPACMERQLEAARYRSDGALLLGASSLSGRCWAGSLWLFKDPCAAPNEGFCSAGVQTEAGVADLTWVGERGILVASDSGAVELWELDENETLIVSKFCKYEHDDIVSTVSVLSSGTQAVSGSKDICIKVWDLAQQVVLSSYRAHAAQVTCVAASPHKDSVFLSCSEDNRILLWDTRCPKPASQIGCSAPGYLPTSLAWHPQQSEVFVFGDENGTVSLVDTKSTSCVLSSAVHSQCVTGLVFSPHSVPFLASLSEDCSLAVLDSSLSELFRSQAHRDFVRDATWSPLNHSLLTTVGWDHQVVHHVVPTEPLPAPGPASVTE
row,SMILES,IC50 [µM]
1,"O[C@H]1CN(c2cc(Nc3cccc(Cl)c3)ncn2)CC[C@@H]1N1CCc2ccccc2C1 (relative stereo) [Example 43, trans-1-(6-((3-chlorophenyl)amino)pyrimidin-4-yl)-4-(3,4-dihydroisoquinolin-2(1H)-yl)piperidin-3-ol]",< 0.1
2,"O[C@H]1CN(c2cc(Nc3ccccc3F)ncn2)CC[C@@H]1N1CCc2ccccc2C1 (relative stereo) [Example 53, trans-4-(3,4-dihydroisoquinolin-2(1H)-yl)-1-(6-((2-fluorophenyl)amino)pyrimidin-4-yl)piperidin-3-ol]",< 0.1
3,"CC(=O)N1CCC(Nc2cc(C(=O)N3CC[C@@H](N4CCc5ccccc5C4)[C@H](O)C3)nc(OCC(C)C)n2)CC1 [Example 140, 1-(4-((6-((3R,4R)-4-(3,4-dihydro-4,4-dideuterium-isoquinolin-2(1H)-yl)-3-hydroxypiperidine-1-carbonyl)-2-isobutoxypyrimidin-4-yl)amino)piperidin-1-yl)ethan-1-one]",< 0.1
4,"COc1cccc(Nc2cc(N3CC[C@H](N4CCc5ccccc5C4)[C@@H](O)C3)ncn2)c1 (relative stereo) [Example 47, trans-1-(6-((3-methoxyphenyl)amino)pyrimidin-4-yl)-4-(3,4-dihydroisoquinolin-2(1H)-yl)piperidin-3-ol]",< 0.1
5,"Cc1ccc(Nc2cc(N3CC[C@H](N4CCc5ccccc5C4)[C@@H](O)C3)ncn2)cc1 [Example 41, trans-1-(6-((4-methylphenyl)amino)pyrimidin-4-yl)-4-(3,4-dihydroisoquinolin-2(l H)-yl)piperidin-3-ol]",< 0.1
6,"Cc1ccccc1Nc1cc(N2CC[C@H](N3CCc4ccccc4C3)[C@@H](O)C2)ncn1 (relative stereo) [Example 46, trans-1-(6-((2-methylphenyl)amino)pyrimidin-4-yl)-4-(3,4-dihydroisoquinolin-2(1H)-yl)piperidin-3-ol]",< 0.1
7,"O[C@H]1CN(c2cc(Nc3ccc(C4CC4)cc3)ncn2)CC[C@@H]1N1CCc2ccccc2C1 (relative stereo) [Example 38, trans-1-(6-((4-cyclopropylphenyl)amino)pyrimidin-4-yl)-4-(3,4-dihydroisoquinolin-2(1H)-yl)piperidin-3-ol]",< 0.1
8,"O[C@H]1CN(c2cc(Nc3cccc(F)c3)ncn2)CC[C@@H]1N1CCc2ccccc2C1 (relative stereo) [Example 42, trans-1-(6-((3-fluorophenyl)amino)pyrimidin-4-yl)-4-(3,4-dihydroisoquinolin-2(1H)-yl)piperidin-3-ol]",< 0.1
9,"CC(C)(C)c1ccc(Nc2cc(N3CC[C@H](N4CCc5ccccc5C4)[C@@H](O)C3)ncn2)cc1 (relative stereo) [Example 39, trans-1-(6-((4-t-butylphenyl)amino)pyrimidin-4-yl)-4-(3,4-dihydroisoquinolin-2(1H)-yl)piperidin-3-ol]",< 0.1
10,"O[C@H]1CN(c2cc(Nc3ccccc3N3CCOCC3)ncn2)CC[C@@H]1N1CCc2ccccc2C1 (relative stereo) [Example 50, trans-4-(3,4-dihydroisoquinolin-2(1H)-yl)-1-(6-((2-morpholinylphenyl)-amino)pyrimidin-4-yl)piperidin-3-ol]",< 0.1
11,"O[C@H]1CN(c2cc(Nc3ccccc3Cl)ncn2)CC[C@@H]1N1CCc2ccccc2C1 (relative stereo) [Example 54, trans-4-(3,4-dihydroisoquinolin-2(1H)-yl)-1-(6-((2-chlorophenyl)amino)pyrimidin-4-yl)piperidin-3-ol]",< 0.1
12,"CC(=O)N1CCC(Nc2cc(C(=O)N3CC[C@@H](N4CCc5ccccc5C4)[C@H](O)C3)nc(SC(C)C)n2)CC1 [Example 155, 1-(4-((6-((3R,4R)-4-(3,4-dihydroisoquinolin-2(1H)-yl)-3-hydroxy-piperidine-1-carbonyl)-2-(isopropylthio)pyrimidin-4-yl)amino)piperidin-1-yl)ethan-1-one hydrochloride]",< 0.1
13,"O[C@H]1CN(c2cc(Nc3ccc(N4CCOCC4)cc3)ncn2)CC[C@@H]1N1CCc2ccccc2C1 (relative stereo) [Example 49, trans-4-(3,4-dihydroisoquinolin-2(1H)-yl)-1-(6-((4-morpholinylphenyl)amino)pyrimidin-4-yl)piperidin-3-ol]",< 0.1
14,"O[C@H]1CN(c2cc(Nc3ccccc3C(F)(F)F)ncn2)CC[C@@H]1N1CCc2ccccc2C1 (relative stereo) [Example 58, trans-4-(3,4-dihydroisoquinolin-2(1H)-yl)-1-(6-((2-trifluoromethylphenyl)amino)pyrimidin-4-yl)piperidin-3-ol]",< 0.1

# Other lines, results leading:
row,IC50 [µM],SMILES
1,< 0.1,O=C(c1cc(Nc2cccc(N3CCCC3)c2)ncn1)N1CC[C@H](N2CCc3ccccc3C2)[C@@H](O)C1 [Example 108]
2,< 0.1,COCCN1CCC(Nc2cc(C(=O)N3CC[C@H](N4CCc5ccccc5C4)[C@@H](O)C3)ncn2)CC1 [Example 96]
3,< 0.1,"O[C@@H]1CN(c2cc(Nc3ccc(N4CCCC4)cc3)ncn2)CC[C@H]1N1CCc2ccccc2C1 (relative stereo) [Example 95, trans-4-(3,4-dihydroisoquinolin-2(1H)-yl)-1-(6-((4-(pyrrolidin-1-yl)phenyl)amino)pyrimidin-4-yl)piperidin-3-ol]"
4,< 0.1,CC(=O)N1CCC(Nc2cc(C(=O)N3CC[C@H](N4CCc5ccccc5C4)[C@@H](O)C3)nc(-c3ccccc3)n2)CC1 [Example 104]
5,< 0.1,"COc1ccc(F)cc1Nc1cc(N2CC[C@@H](N3CCc4ccccc4C3)[C@H](O)C2)ncn1 (relative stereo) [Example 92, trans-1-(6-((5-fluoro-2-methoxyphenyl)amino)pyrimidin-4-yl)-4-(3,4-dihydroisoquinolin-2(1H)-yl)piperidin-3-ol]"
6,< 0.1,O=C(c1cc(Nc2ccccc2)ncn1)N1CC[C@H](N2CCc3ccccc3C2)[C@@H](O)C1 [Example 101]
7,< 0.1,"O[C@@H]1CN(c2cc(Nc3ccccc3OCC(F)(F)F)ncn2)CC[C@H]1N1CCc2ccccc2C1 (relative stereo) [Example 91, trans-1-(6-((2-(2,2,2-trifluoroethoxy)phenyl)amino)pyrimidin-4-yl)-4-(3,4-dihydroisoquinolin-2(1H)-yl)piperidin-3-ol]"
8,< 0.1,"COc1nc(NC2CCN(C(C)=O)CC2)cc(C(=O)N2CC[C@H](N3CCc4ccccc4C3)[C@@H](O)C2)n1 (relative stereo) [Example 120, 1-(4-((6-(trans-4-(3,4-dihydroisoquinolin-2(1H)-yl)-3-hydroxypiperidine-1-carbonyl)-2-methoxypyrimidin-4-yl)amino)piperidin-1-yl)ethan-1-one]"
9,< 0.1,"CC(=O)N1CCC(Nc2cc(C(=O)N3CC[C@H](O)[C@@H](N4CCc5ccccc5C4)CC3)ncn2)CC1 [Example 124, 1-(4-((6-((4S,5S)-4-(3,4-dihydroisoquinolin-2(1H)-yl)-5-hydroxyazepane-1-carbonyl)pyrimidin-4-yl)amino)piperidin-1-yl)ethan-1-one]"
10,< 0.1,"O[C@H]1CN(c2cc(Nc3ccc(F)c(F)c3)ncn2)CC[C@@H]1N1CCc2ccccc2C1 (relative stereo) [Example 78, trans-1-(6-((3,4-difluorophenyl)amino)pyrimidin-4-yl)-4-(3,4-dihydroisoquinolin-2(1H)-yl)piperidin-3-ol]"
11,< 0.1,"CC(=O)N1CCC(CCNc2cc(C(=O)N3CC[C@H](N4CCc5ccccc5C4)[C@@H](O)C3)ncn2)CC1 (relative stereo) [Example 115, trans-1-(4-(2-((6-(4-(3,4-dihydroisoquinolin-2(1H)-yl)-3-hydroxy-piperidine-1-carbonyl)pyrimidin-4-yl)amino)ethyl)piperidin-1-yl)ethanone]"
12,< 0.1,"CCOc1ccccc1Nc1cc(N2CC[C@@H](N3CCc4ccccc4C3)[C@H](O)C2)ncn1 (relative stereo) [Example 90, trans-1-(6-((2-ethoxyphenyl)amino)pyrimidin-4-yl)-4-(3,4-dihydroisoquinolin-2(1H)-yl)piperidin-3-ol]"
13,< 0.1,"CC(=O)N1CCC(Oc2cc(C(=O)N3CC[C@@H](N4CCc5ccccc5C4)[C@H](O)C3)ncn2)CC1 (relative stereo) [Example 142, trans-1-(4-((6-(4-(3,4-dihydroisoquinolin-2(1H)-yl)-3-hydroxypiperidine-1-carbonyl)pyrimidin-4-yl)oxy)piperidin-1-yl)ethan-1-one]"
14,< 0.1,"O[C@@H]1CN(c2cc(Nc3cccc(F)c3F)ncn2)CC[C@H]1N1CCc2ccccc2C1 (relative stereo) [Example 87, trans-1-(6-((2,3-difluorophenyl)amino)pyrimidin-4-yl)-4-(3,4-dihydroisoquinolin-2(1H)-yl)piperidin-3-ol]"
